Measurements reported in patent US11524966B1 (Valo Early Discovery, Inc., priority 2017, dated 2022).

These compounds were tested against T1, USP28 (His-tagged USP28-FL-mammalian) (Homo sapiens, UniProt Q96RU2) (assay: Ubiquitin-Rhodamine 110 Assay for USP28 Activity, Example A-1(a)). Details: Ub-Rh110 assay, Example A-1(a); read-out: USP28 A-1(a) IC50 range.
T1 construct: Expression of USP28 (1-1077)-TEV-6*His (pTT5 vector); made in house; host or cells: Expi293f cells (pTT5 vector)
T1 sequence (Q96RU2 1-1077): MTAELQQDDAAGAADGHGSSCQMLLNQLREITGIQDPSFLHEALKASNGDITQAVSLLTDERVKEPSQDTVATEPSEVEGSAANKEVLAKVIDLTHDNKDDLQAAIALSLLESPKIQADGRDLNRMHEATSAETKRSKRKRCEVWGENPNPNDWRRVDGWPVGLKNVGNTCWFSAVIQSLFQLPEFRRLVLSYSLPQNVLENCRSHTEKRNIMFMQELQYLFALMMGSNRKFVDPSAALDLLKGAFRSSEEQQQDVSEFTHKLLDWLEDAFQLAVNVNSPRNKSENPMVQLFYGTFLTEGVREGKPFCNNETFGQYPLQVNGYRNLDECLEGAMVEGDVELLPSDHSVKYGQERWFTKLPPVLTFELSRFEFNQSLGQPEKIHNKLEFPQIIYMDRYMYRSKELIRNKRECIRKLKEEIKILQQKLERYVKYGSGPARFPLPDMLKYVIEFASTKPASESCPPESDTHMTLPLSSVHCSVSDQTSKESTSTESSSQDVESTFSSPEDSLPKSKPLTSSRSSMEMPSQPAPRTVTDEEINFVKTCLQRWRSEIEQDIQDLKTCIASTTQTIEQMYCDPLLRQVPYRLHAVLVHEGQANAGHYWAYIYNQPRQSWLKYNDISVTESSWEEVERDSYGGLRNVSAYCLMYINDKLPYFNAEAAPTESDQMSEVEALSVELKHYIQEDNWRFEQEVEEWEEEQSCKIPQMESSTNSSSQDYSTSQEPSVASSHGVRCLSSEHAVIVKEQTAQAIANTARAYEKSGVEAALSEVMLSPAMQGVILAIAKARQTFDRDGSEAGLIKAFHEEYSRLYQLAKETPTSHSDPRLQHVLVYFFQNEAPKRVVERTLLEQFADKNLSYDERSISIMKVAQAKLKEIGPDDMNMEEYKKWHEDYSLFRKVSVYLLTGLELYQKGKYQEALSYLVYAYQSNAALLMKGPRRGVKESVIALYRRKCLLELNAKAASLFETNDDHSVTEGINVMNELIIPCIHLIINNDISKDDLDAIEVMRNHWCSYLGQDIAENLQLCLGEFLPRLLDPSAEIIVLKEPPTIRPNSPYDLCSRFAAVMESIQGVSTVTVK
Assay type: biochemical
How it was run: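 Full-length His-tagged human USP28 (1-1077, Expi293f-expressed), […], with 25 nM Ub-Rh110 (<<Km) in pH 8.0 Tris buffer with BME, BGG, Triton X-100. 10-point dilutions (25 μM-1.3 nM), 45 min at room temperature, citric acid stop, fluorescence 485/535 nm; IC50 by 4-parameter fit.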

**Q.** For `Cc1ccc2c(N)c(C(=O)N[C@@H]3COc4c(ccc(N5CCNCC5)c4F)C3)sc2n1` [Example 1-34, (S)-3-amino-N-(8-fluoro-7-(piperazin-1-yl)chroman-3-yl)-6-methylthieno[2,3-b]pyridine-2-carboxamide], which IC50 is on record?
**A.** The IC50 was 200 to 2000 nM.

**Q.** `Cc1ccc2c(N)c(C(=O)N[C@H]3COc4cc(N5CCNCC5)c(F)cc4C3)sc2n1` [Example 1-35, (R)-3-amino-N-(6-fluoro-7-(piperazin-1-yl)chroman-3-yl)-6-methylthieno[2,3-b]pyridine-2-carboxamide] was tested. Which IC50 did it give?
**A.** The IC50 was 1 to 50 nM.

**Q.** Which IC50 does the source give for `Cc1ccc2c(N)c(C(=O)N[C@@H]3COc4cc(N5CCNCC5)c(F)cc4C3)sc2n1` [Example 1-36, (S)-3-amino-N-(6-fluoro-7-(piperazin-1-yl)chroman-3-yl)-6-methylthieno[2,3-b]pyridine-2-carboxamide] here?
**A.** Its IC50 is over 2000 nM.

**Q.** Which IC50 does the source give for `Cc1ccc2c(N)c(C(=O)N[C@H]3COc4cc(N5CC6CNCC(C5)C6(F)F)ccc4C3)sc2n1` [Example 2-1, 3-Amino-N-((3R)-7-(9,9-difluoro-3,7-diazabicyclo[3.3.1]nonan-3-yl)chroman-3-yl)-6-methylthieno[2,3-b]pyridine-2-carboxamide] here?
**A.** The IC50 was 1 to 50 nM.

**Q.** How did the IC50 turn out when `Cc1ccc2c(N)c(C(=O)N[C@H]3COc4cc(N5CC6CC(C5)N6)ccc4C3)sc2n1` [Example 2-2, N-((3R)-7-(3,6-diazabicyclo[3.1.1]heptan-3-yl)chroman-3-yl)-3-amino-6-methylthieno[2,3-b]pyridine-2-carboxamide] was run?
**A.** The IC50 was 1 to 50 nM.

**Q.** Which IC50 does the source give for `Cc1ccc2c(N)c(C(=O)N[C@@H]3COc4cc(N5CC6CC(C5)N6)ccc4C3)sc2n1` [Example 2-3, N-((3S)-7-(3,6-diazabicyclo[3.1.1]heptan-3-yl)chroman-3-yl)-3-amino-6-methylthieno[2,3-b]pyridine-2-carboxamide] here?
**A.** The IC50 was 200 to 2000 nM.

**Q.** With `Cc1ccc2c(N)c(C(=O)N[C@H]3COc4cc(N5CCNC[C@@H]5C)ccc4C3)sc2n1` [Example 2-4, 3-amino-6-methyl-N-((R)-7-((S)-2-methylpiperazin-1-yl)chroman-3-yl)thieno[2,3-b]pyridine-2-carboxamide] as the compound, how does the IC50 read?
**A.** Its IC50 is 1 to 50 nM.

**Q.** How did the IC50 turn out when `Cc1ccc2c(N)c(C(=O)N[C@H]3COc4cc(N5CCNC[C@H]5C)ccc4C3)sc2n1` [Example 2-5, 3-amino-6-methyl-N-((R)-7-((R)-2-methylpiperazin-1-yl)chroman-3-yl)thieno[2,3-b]pyridine-2-carboxamide] was run?
**A.** The IC50 was 1 to 50 nM.

**Q.** For `Cc1ccc2c(N)c(C(=O)N[C@H]3COc4cc(N5C6CCC5CNC6)ccc4C3)sc2n1` [Example 2-6, N-((3R)-7-(3,8-diazabicyclo[3.2.1]octan-8-yl)chroman-3-yl)-3-amino-6-methylthieno[2,3-b]pyridine-2-carboxamide], which IC50 is on record?
**A.** Its IC50 is 1 to 50 nM.

**Q.** For `Cc1ccc2c(N)c(C(=O)N[C@H]3COc4cc(N5CCCC56CNC6)ccc4C3)sc2n1` [Example 2-7, (R)-N-(7-(2,5-diazaspiro[3.4]octan-5-yl)chroman-3-yl)-3-amino-6-methylthieno[2,3-b]pyridine-2-carboxamide], which IC50 is on record?
**A.** The IC50 was 1 to 50 nM.

**Q.** With `Cc1ccc2c(N)c(C(=O)N[C@H]3COc4cc(N5CCN[C@@H](C)C5)ccc4C3)sc2n1` [Example 2-8, 3-amino-6-methyl-N-((R)-7-((S)-3-methylpiperazin-1-yl)chroman-3-yl)thieno[2,3-b]pyridine-2-carboxamide] as the compound, how does the IC50 read?
**A.** Its IC50 is 1 to 50 nM.

**Q.** With `Cc1ccc2c(N)c(C(=O)N[C@H]3COc4cc(N5CCN[C@H](C)C5)ccc4C3)sc2n1` [Example 2-9, 3-amino-6-methyl-N-((R)-7-((R)-3-methylpiperazin-1-yl)chroman-3-yl)thieno[2,3-b]pyridine-2-carboxamide] as the compound, how does the IC50 read?
**A.** Its IC50 is 1 to 50 nM.

**Q.** Which IC50 does the source give for `Cc1ccc2c(N)c(C(=O)N[C@H]3COc4cc(N5CCNCC56COC6)ccc4C3)sc2n1` [Example 2-10] here?
**A.** The IC50 was 1 to 50 nM.

**Q.** Which IC50 does the source give for `Cc1cnc2c(N)c(C(=O)N[C@H]3COc4cc(N5CC6CC(C5)N6)ccc4C3)sc2n1` [Example 2-11, N-((3R)-7-(3,6-diazabicyclo[3.1.1]heptan-3-yl)chroman-3-yl)-7-amino-3-methylthieno[2,3-b]pyrazine-6-carboxamide] here?
**A.** Its IC50 is 1 to 50 nM.

**Q.** Which IC50 does the source give for `Cc1cnc2c(N)c(C(=O)N[C@H]3COc4cc(N5CC6COCC(C5)N6)ccc4C3)sc2n1` [Example 2-12, N-((3R)-7-(3-oxa-7,9-diazabicyclo[3.3.1]nonan-7-yl)chroman-3-yl)-7-amino-3-methylthieno[2,3-b]pyrazine-6-carboxamide] here?
**A.** Its IC50 is 50 to 200 nM.

**Q.** With `Cc1cnc2c(N)c(C(=O)N[C@H]3COc4cc(N5CC6CNCC(C5)O6)ccc4C3)sc2n1` [Example 2-13, N-((3R)-7-(9-oxa-3,7-diazabicyclo[3.3.1]nonan-3-yl)chroman-3-yl)-7-amino-3-methylthieno[2,3-b]pyrazine-6-carboxamide] as the compound, how does the IC50 read?
**A.** Its IC50 is 1 to 50 nM.

**Q.** Which IC50 does the source give for `Nc1c(C(=O)N[C@H]2COc3cc(N4CC5CC(C4)N5)ccc3C2)sc2nc(F)ccc12` [Example 2-14, N-((3R)-7-(3,6-diazabicyclo[3.1.1]heptan-3-yl)chroman-3-yl)-3-amino-6-fluorothieno[2,3-b]pyridine-2-carboxamide] here?
**A.** Its IC50 is 1 to 50 nM.

**Q.** With `Cc1nc2sc(C(=O)N[C@H]3COc4cc(N5CC6CC(C5)N6)ccc4C3)c(N)c2cc1F` [Example 2-15, N-((3R)-7-(3,6-diazabicyclo[3.1.1]heptan-3-yl)chroman-3-yl)-3-amino-5-fluoro-6-methylthieno[2,3-b]pyridine-2-carboxamide] as the compound, how does the IC50 read?
**A.** The IC50 was 1 to 50 nM.

**Q.** How did the IC50 turn out when `COc1nc2sc(C(=O)N[C@H]3COc4cc(N5CCNCC5)ccc4C3)c(N)c2cc1F` [Example 2-16, (R)-3-amino-5-fluoro-6-methoxy-N-(7-(piperazin-1-yl)chroman-3-yl)thieno[2,3-b]pyridine-2-carboxamide] was run?
**A.** The IC50 was 50 to 200 nM.

**Q.** How did the IC50 turn out when `Cc1cc(C)c2c(N)c(C(=O)N[C@H]3COc4cc(N5CCNCC5)ccc4C3)sc2n1` [Example 2-17, (R)-3-amino-4,6-dimethyl-N-(7-(piperazin-1-yl)chroman-3-yl)thieno[2,3-b]pyridine-2-carboxamide] was run?
**A.** Its IC50 is 1 to 50 nM.

**Q.** Which IC50 does the source give for `Cc1cc(C)c2c(N)c(C(=O)N[C@H]3COc4cc(N5CC6CC(C5)N6)ccc4C3)sc2n1` [Example 2-18, N-((3R)-7-(3,6-diazabicyclo[3.1.1]heptan-3-yl)chroman-3-yl)-3-amino-4,6-dimethylthieno[2,3-b]pyridine-2-carboxamide] here?
**A.** The IC50 was 1 to 50 nM.

**Q.** How did the IC50 turn out when `Cc1cc(C)c2c(N)c(C(=O)N[C@H]3COc4cc(N5CC6CNCC(C5)C6(F)F)ccc4C3)sc2n1` [Example 2-19, 3-amino-N-((3R)-7-(9,9-difluoro-3,7-diazabicyclo[3.3.1]nonan-3-yl)chroman-3-yl)-4,6-dimethylthieno[2,3-b]pyridine-2-carboxamide] was run?
**A.** The IC50 was 1 to 50 nM.

**Q.** How did the IC50 turn out when `Cc1cc(C)c2c(N)c(C(=O)N[C@H]3COc4cc(N5CC6CNCC(C5)O6)ccc4C3)sc2n1` [Example 2-20, N-((3R)-7-(9-oxa-3,7-diazabicyclo[3.3.1]nonan-3-yl)chroman-3-yl)-3-amino-4,6-dimethylthieno[2,3-b]pyridine-2-carboxamide] was run?
**A.** The IC50 was 1 to 50 nM.

**Q.** `Cc1cc(C(F)(F)F)c2c(N)c(C(=O)N[C@H]3COc4cc(N5CC6CC(C5)N6)ccc4C3)sc2n1` [Example 2-21] was tested. Which IC50 did it give?
**A.** Its IC50 is 1 to 50 nM.

**Q.** `Cc1cc(C(F)(F)F)c2c(N)c(C(=O)N[C@H]3COc4cc(N5CC6CNCC(C5)C6(F)F)ccc4C3)sc2n1` [Example 2-22, 3-amino-N-((3R)-7-(9,9-difluoro-3,7-diazabicyclo[3.3.1]nonan-3-yl)chroman-3-yl)-6-methyl-4-(trifluoromethyl)thieno[2,3-b]pyridine-2-carboxamide] was tested. Which IC50 did it give?
**A.** Its IC50 is 1 to 50 nM.

**Q.** How did the IC50 turn out when `Cc1cc(C(F)(F)F)c2c(N)c(C(=O)N[C@H]3COc4cc(N5CC6CNCC(C5)O6)ccc4C3)sc2n1` [Example 2-23, N-((3R)-7-(9-oxa-3,7-diazabicyclo[3.3.1]nonan-3-yl)chroman-3-yl)-3-amino-6-methyl-4-(trifluoromethyl)thieno[2,3-b]pyridine-2-carboxamide] was run?
**A.** Its IC50 is 1 to 50 nM.

**Q.** With `O=C(N[C@H]1COc2cc(N3CC4CCC(C3)N4)ccc2C1)c1cnc2c(c1)C1(CCN2)CC1` [Example 2-24, N-((3R)-7-(3,8-diazabicyclo[3.2.1]octan-3-yl)chroman-3-yl)-2′,3′-dihydro-1′H-spiro[cyclopropane-1,4′-[1,8]naphthyridine]-6′-carboxamide] as the compound, how does the IC50 read?
**A.** The IC50 was 50 to 200 nM.
